In publication PMC3400326 (Pharmacogenomics and personalized medicine, 2011):

Experiments:
SULT1A1 = SULT1A1 (Homo sapiens, UniProt P50225); experiment: intrinsic fluorescence titration; type: binding
SULT1E1 = target: T1, SULT1E1 (Homo sapiens, UniProt P49888); experiment: intrinsic fluorescence titration; type: binding
T1 sequence (P49888 1-294): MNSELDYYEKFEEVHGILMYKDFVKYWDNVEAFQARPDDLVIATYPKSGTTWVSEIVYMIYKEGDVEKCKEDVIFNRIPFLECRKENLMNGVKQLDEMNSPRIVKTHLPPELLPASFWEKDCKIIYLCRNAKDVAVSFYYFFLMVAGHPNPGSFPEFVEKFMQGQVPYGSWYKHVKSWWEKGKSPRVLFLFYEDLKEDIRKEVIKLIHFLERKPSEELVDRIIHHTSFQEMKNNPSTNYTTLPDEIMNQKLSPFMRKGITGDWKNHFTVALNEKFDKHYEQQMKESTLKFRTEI

Chain of SULT1A1 (P50225 whole entry): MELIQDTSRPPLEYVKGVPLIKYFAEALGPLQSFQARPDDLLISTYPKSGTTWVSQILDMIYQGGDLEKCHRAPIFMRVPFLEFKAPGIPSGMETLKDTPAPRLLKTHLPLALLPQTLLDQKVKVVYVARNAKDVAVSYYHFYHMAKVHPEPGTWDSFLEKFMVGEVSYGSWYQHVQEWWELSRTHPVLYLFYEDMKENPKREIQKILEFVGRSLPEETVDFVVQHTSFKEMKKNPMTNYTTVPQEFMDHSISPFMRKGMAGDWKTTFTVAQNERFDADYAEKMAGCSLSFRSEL

Q: Which results are given for C[C@]12CC[C@@H]3c4ccc(O)cc4C[C@@H](CCCCCCCCC[S+]([O-])CCCC(F)(F)C(F)(F)F)[C@H]3[C@@H]1CC[C@@H]2O (some centres unmarked) [fulvestrant]?
A: Kd (SULT1A1): 2.3 ± 0.4 µM; Kd (SULT1E1): 0.2 ± 0.02 µM
